Data published in patent publication US10472341B2, “Bicyclic tetrahydrothiazepine derivatives useful for the treatment of neoplastic and/or infectious diseases” (APEIRON BIOLOGICS AG, priority 2015, dated 2019).
Counter-ions that a name gives are not always drawn.

Test system: Splenocytes of BL6 mice
Experiment: Murine splenocytes stimulated with anti-CD3 and anti-CD28 antibodies: IL-2, CD25 on CD4 and CD8 T cells
Assay type: cell-based, mouse
Settings: for production of cytokine: murine splenocytes stimulated with anti-CD3 and anti-CD28; for enhancement of cytokine production: unstimulated murine splenocytes

Compound	CD25+ CD4 T cells (aCD3/28 stim, 0.3 μM) [% gated]	CD25+ CD8 T cells (aCD3/28 stim, 0.3 μM) [% gated]	IL-2 production (aCD3/28 stim, 0.3 μM) [ng/mL]	CD25+ CD4 T cells (aCD3/28 stim, 1 μM) [% gated]	CD25+ CD8 T cells (aCD3/28 stim, 1 μM) [% gated]	IL-2 production (aCD3/28 stim, 1 μM) [ng/mL]	CD25+ CD4 T cells (aCD3/28 stim, 3 μM) [% gated]	CD25+ CD8 T cells (aCD3/28 stim, 3 μM) [% gated]	IL-2 production (aCD3/28 stim, 3 μM) [ng/mL]	CD25+ CD4 T cells (aCD3/28 stim, 10 μM) [% gated]	CD25+ CD8 T cells (aCD3/28 stim, 10 μM) [% gated]	IL-2 production (aCD3/28 stim, 10 μM) [ng/mL]	CD25+ CD4 T cells (aCD3/28 stim, 30 μM) [% gated]	CD25+ CD8 T cells (aCD3/28 stim, 30 μM) [% gated]	IL-2 production (aCD3/28 stim, 30 μM) [ng/mL]	production of cytokine	CD25+ CD4 T cells (unstim, 0.3 μM) [% gated]	CD25+ CD8 T cells (unstim, 0.3 μM) [% gated]	IL-2 production (unstim, 0.3 μM) [ng/mL]	CD25+ CD4 T cells (unstim, 1 μM) [% gated]	also measured
N[C@H]1CS(=O)(=O)c2cc(F)c(C(=O)NC3CC3(F)F)cc2N(Cc2ccc(Cl)cc2)C1=O (stereo partly drawn) [Example 1, (3R)-3-amino-5-[(4-chlorophenyl)methyl]-N-(2,2-difluorocyclopropyl)-8-fluoro-1,1,4-trioxo-2,3,4,5-tetrahydro-1λ^6,5-benzothiazepine-7-carboxamide hydrochloride]	7.48	5.86	0.29	7.42	7.17	0.45	9.19	10.90	0.61	12.15	15.76	1.46	12.01	16.51	1.71	strongly enhanced production of cytokine	0.50	0.61	0.00	0.50	CD25+ CD8 T cells (unstim, 1 μM): 0.65 % gated; IL-2 production (unstim, 1 μM): 0.00 ng/mL; CD25+ CD4 T cells (unstim, 3 μM): 0.42 % gated; CD25+ CD8 T cells (unstim, 3 μM): 0.61 % gated; IL-2 production (unstim, 3 μM): 0.00 ng/mL; CD25+ CD4 T cells (unstim, 10 μM): 0.41 % gated; CD25+ CD8 T cells (unstim, 10 μM): 0.62 % gated; IL-2 production (unstim, 10 μM): 0.00 ng/mL; CD25+ CD4 T cells (unstim, 30 μM): 0.38 % gated; CD25+ CD8 T cells (unstim, 30 μM): 0.56 % gated; IL-2 production (unstim, 30 μM): 0.00 ng/mL; enhancement of cytokine production: such effect was not detected on unstimulated cells
Cl.N[C@H]1CS(=O)(=O)c2cc(F)c(C(=O)NCCCC(F)(F)F)cc2N(Cc2ccc(Cl)cc2)C1=O [Example 70, (3R)-3-amino-5-[(4-chlorophenyl)methyl]-8-fluoro-1,1,4-trioxo-N-(4,4,4-trifluoro-butyl)-2,3,4,5-tetrahydro-1λ^6,5-benzothiazepine-7-carboxamide hydrochloride]	8.10	10.10	0.77	9.28	10.41	0.91	11.88	14.58	1.54	13.41	16.68	1.90	11.94	17.50	1.71	strongly enhanced production of cytokine	0.55	0.61	0.00	0.45	CD25+ CD8 T cells (unstim, 1 μM): 0.65 % gated; IL-2 production (unstim, 1 μM): 0.00 ng/mL; CD25+ CD4 T cells (unstim, 3 μM): 0.48 % gated; CD25+ CD8 T cells (unstim, 3 μM): 0.60 % gated; IL-2 production (unstim, 3 μM): 0.00 ng/mL; CD25+ CD4 T cells (unstim, 10 μM): 0.45 % gated; CD25+ CD8 T cells (unstim, 10 μM): 0.60 % gated; IL-2 production (unstim, 10 μM): 0.00 ng/mL; CD25+ CD4 T cells (unstim, 30 μM): 0.47 % gated; CD25+ CD8 T cells (unstim, 30 μM): 0.64 % gated; IL-2 production (unstim, 30 μM): 0.00 ng/mL; enhancement of cytokine production: such effect was not detected on unstimulated cells
